Read-outs that look alike come from different tables or passages of the source.
Legend:
human H3 receptor [1] = molecular target: T1, human H3 receptor (Homo sapiens, UniProt Q9Y5N1); assay: H3 receptor binding (N-[3H]-α-methylhistamine displacement, SK-N-MC cell membranes); details: 0.8 nM N-[3H]-α-methylhistamine, 60 min at 25° C.
T1 construct: expressed in transfected cells
Method: Binding of compounds to the cloned human H3 receptor, stably expressed in SK-N-MC cells, was performed (Lovenberg, T. W. et al. J. Pharmacol. Exp. Ther. 2000, 293, 771-778). Briefly, cell pellets from SK-N-MC cells expressing the human H3 receptor were homogenized in 50 mM Tris-HCl/5 mM EDTA and re-centrifuged at 30,000 g for 30 min. Pellets were re-homogenized in 50 mM Tris/5 mM EDTA (pH 7.4). Membranes were incubated with 0.8 nM N—[^3H]-α-methylhistamine plus/minus test compounds for 60 min at 25° C. and harvested by rapid filtration over GF/C glass fiber filters (pretreated with 0.3% polyethylenimine) followed by four washes with ice-cold buffer. Nonspecific binding was defined in the presence of 10 μM histamine.

human H3 receptor [2] = molecular target: T1, human H3 receptor; assay: Cyclic AMP accumulation (β-galactosidase reporter in SK-N-MC cells); assay type: cell-based
Method: Sublines of SK-N-MC cells were created that expressed a reporter construct and the human H3 receptor. The reporter gene (β-galactosidase) is under the control of multiple cyclic AMP responsive elements. In 96-well plates, histamine was added directly to the cell media followed 5 min later by an addition of forskolin (5 μM final concentration). When appropriate, antagonists were added 10 min prior to agonist addition. After a 6-h incubation at 37° C., the media was aspirated and the cells washed with 200 μL of phosphate-buffered saline followed by a second aspiration. Cells were lysed with 25 μL 0.1× assay buffer (10 mM Na-phosphate, pH 8, 0.2 mM MgSO4, 0.01 mM MnCl2) and incubated at rt for 10 min. Cells were then incubated for 10 min with 100 μL of 1× assay buffer containing 0.5% Triton and 40 mM β-mercaptoethanol. Color was developed using 25 μL of 1 mg/mL substrate solution (chlorophenolred β-D galactopyranoside; Roche Molecular Biochemicals, Indianapolis, Ind.). Color was quantitated on a microplate reader at absorbance 570 nm. The pA2 values were calculated by Schild regression analysis of the pEC50 values.

Rat SERT = molecular target: T2, Rat SERT (Rattus norvegicus, UniProt P31652); assay: Rat brain SERT binding ([3H]-Citalopram displacement, rat brain membranes); details: 0.6 nM [3H]-Citalopram, 60 min at 25° C.
T2 construct: A rat brain without cerebellum (Zivic Laboratories, Inc.—Pittsburgh, Pa.) was homogenized; tissue Zivic Laboratories, Inc; host or cells: rat brain without cerebellum
T2 sequence (P31652 whole entry): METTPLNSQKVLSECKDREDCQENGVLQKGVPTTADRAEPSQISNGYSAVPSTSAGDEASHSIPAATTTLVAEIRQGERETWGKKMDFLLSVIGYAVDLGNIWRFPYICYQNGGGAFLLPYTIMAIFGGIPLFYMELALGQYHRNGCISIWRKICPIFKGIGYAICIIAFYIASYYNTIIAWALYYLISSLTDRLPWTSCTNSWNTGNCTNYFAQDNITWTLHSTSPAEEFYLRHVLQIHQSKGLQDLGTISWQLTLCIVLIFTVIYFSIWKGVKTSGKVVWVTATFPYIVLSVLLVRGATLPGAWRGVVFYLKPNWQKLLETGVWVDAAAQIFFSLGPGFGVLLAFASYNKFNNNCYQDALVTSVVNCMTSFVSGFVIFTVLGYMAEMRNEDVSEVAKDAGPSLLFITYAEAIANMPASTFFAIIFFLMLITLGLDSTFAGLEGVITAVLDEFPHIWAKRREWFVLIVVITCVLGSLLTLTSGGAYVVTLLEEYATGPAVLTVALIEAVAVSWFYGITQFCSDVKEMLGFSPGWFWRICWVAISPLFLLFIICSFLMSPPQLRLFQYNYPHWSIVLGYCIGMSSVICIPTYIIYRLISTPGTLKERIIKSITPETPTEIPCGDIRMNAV
Method: A rat brain without cerebellum (Zivic Laboratories, Inc.—Pittsburgh, Pa.) was homogenized in a 52.6 mM Tris pH 8/126.4 mM NaCl/5.26 mM KCl mixture and centrifuged at 1,000 rpm for 5 min. The supernatant was removed and re-centrifuged at 15,000 rpm for 30 min. Pellets were re-homogenized in a 52.6 mM Tris pH8/126.4 mM NaCl/5.26 mM KCl mixture. Membranes were incubated with 0.6 nM [^3H]-Citalopram plus/minus test compounds for 60 min at 25° C. and harvested by rapid filtration over GF/C glass fiber filters (pretreated with 0.3% polyethylenimine) followed by four washes with ice-cold buffer. Nonspecific binding was defined in the presence of 100 μM fluoxetine.

human SERT = molecular target: T3, human SERT (Homo sapiens, UniProt P31645); assay: Human SERT binding (3H-citalopram displacement, HEK293 membranes); details: 3H-citalopram 3.1 nM, rt for 1 h
T3 construct: expressed in transfected cells; host or cells: HEK293
T3 sequence (P31645 whole entry): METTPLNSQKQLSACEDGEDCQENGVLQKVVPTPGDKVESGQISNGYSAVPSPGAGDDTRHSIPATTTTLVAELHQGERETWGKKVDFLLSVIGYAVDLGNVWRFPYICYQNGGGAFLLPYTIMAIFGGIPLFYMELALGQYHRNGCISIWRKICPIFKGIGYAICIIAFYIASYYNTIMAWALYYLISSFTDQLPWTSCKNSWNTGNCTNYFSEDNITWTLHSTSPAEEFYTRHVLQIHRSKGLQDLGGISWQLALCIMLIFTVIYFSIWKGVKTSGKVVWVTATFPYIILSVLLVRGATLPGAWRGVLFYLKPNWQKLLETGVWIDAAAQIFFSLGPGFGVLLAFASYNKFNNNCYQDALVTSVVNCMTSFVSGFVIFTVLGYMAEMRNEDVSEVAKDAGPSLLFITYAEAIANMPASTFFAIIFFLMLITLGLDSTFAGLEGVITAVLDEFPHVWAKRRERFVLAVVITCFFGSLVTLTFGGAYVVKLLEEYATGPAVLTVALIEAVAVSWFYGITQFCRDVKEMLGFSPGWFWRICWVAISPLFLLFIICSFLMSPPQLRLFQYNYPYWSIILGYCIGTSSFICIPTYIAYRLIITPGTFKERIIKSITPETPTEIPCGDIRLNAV
Method: Homogenized HEK293 (Human Embryonic Kidney) membranes expressing the human SERT were incubated with ^3H-citalopram (SERT) at rt for 1 h in 50 mM Tris, 120 mM NaCl, 5 mM KCl (pH 7.4). Nonspecific binding was determined in the presence of 10 μM fluoxetine for the SERT. The membranes were washed and the radioactivity was counted as above. Calculations for Ki at the SERT were based on a Kd value for ^3H-citalopram and a ligand concentration of 3.1 nM.

[3] = Schild regression analysis of the pEC50 values, histamine agonist, forskolin 5 μM, SK-N-MC reporter cells, read-out: pA2 (converted)

T1 sequence (Q9Y5N1 whole entry): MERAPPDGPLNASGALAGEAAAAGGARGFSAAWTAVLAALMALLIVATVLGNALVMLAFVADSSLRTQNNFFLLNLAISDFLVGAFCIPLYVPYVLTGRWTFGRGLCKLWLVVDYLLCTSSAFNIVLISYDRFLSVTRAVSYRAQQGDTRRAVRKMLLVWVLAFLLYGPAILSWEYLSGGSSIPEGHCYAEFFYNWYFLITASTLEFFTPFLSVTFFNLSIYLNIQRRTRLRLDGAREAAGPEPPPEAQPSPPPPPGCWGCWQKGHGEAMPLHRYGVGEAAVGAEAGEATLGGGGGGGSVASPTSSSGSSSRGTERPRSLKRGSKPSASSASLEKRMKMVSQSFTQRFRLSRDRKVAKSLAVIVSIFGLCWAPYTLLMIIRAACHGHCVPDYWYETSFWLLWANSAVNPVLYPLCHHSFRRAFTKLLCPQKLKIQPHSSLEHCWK

SMILES | Ki (human H3 receptor [1]) [nM] | Ki (Rat SERT) [nM] | Ki (human SERT) [nM] | Kb (human H3 receptor [2]; [3]) [nM] | Kb (human H3 receptor [2]; read-out: pA2 (converted)) [nM] | Kb (human H3 receptor [2]) [nM]
CN(C)CCC(Oc1ccccc1)c1ccc(OCCCN2CCCCC2)cc1 (stereo not shown) [Example 1, Dimethyl-[3-phenoxy-3-[4-(3-piperidin-1-yl-propoxy)-phenyl]-propyl]-amine] | 0.7 | 1 | 26 |  |  | 0.468
CN(C)CCC(Oc1ccc(C(F)(F)F)cc1)c1ccc(OCCCN2CCCCC2)cc1 (stereo not shown) [Example 2, Dimethyl-[3-[4-(3-piperidin-1-yl-propoxy)-phenyl]-3-(4-trifluoromethyl-phenoxy)-propyl]-amine] | 2.5 | 17 | 14 | 2.95 |  | 
COc1cccc(OC(CCN(C)C)c2ccc(OCCCN3CCCCC3)cc2)c1 (stereo not shown) [Example 13, {3-(3-Methoxy-phenoxy)-3-[4-(3-piperidin-1-yl-propoxy)-phenyl]-propyl}-dimethyl-amine] | 0.7 | 3 | 11 |  | 0.617 | 
CN(C)CCC(Oc1ccc(C(F)(F)F)cc1)c1ccc(C#CCCN2CCCCC2)cc1 (stereo not shown) [Example 20, Dimethyl-[3-[4-(4-piperidin-1-yl-but-1-ynyl)-phenyl]-3-(4-trifluoromethyl-phenoxy)-propyl]-amine] | 9 | 58 | 61 | 5.62 |  | 
CN(C)CCC(Oc1ccccc1)c1ccc(CCCCN2CCCCC2)cc1 (stereo not shown) [Example 32, Dimethyl-{3-phenoxy-3-[4-(4-piperidin-1-yl-butyl)-phenyl]-propyl}-amine] | 6 | 7 | 10 |  | 4.79 | 
CC(C)N1CCC(Oc2ccc(C(CCN(C)C)Oc3ccccc3)cc2)CC1 (stereo not shown) [Example 36, {3-[4-(1-Isopropyl-piperidin-4-yloxy)-phenyl]-3-phenoxy-propyl}-dimethyl-amine] | 0.8 | 36 | 169 |  | 6.92 | 
CC(C)N1CCN(C(=O)c2ccc(C(CCN(C)C)Oc3ccccc3)cc2)CC1 (stereo not shown) [Example 38, [4-(3-Dimethylamino-1-phenoxy-propyl)-phenyl]-(4-isopropylpiperazin-1-yl)-methanone] | 0.7 | 161 | 245 |  | 0.214 | 
CC(C)N1CCN(C(=O)c2ccc(C(CCN(C)C)Oc3ccc(Cl)c(Cl)c3)cc2)CC1 (stereo not shown) [Example 40, {4-[1-(3,4-Dichloro-phenoxy)-3-dimethylamino-propyl]-phenyl}-(4-isopropyl-piperazin-1-yl)-methanone] | 2 | 18 | 7 |  | 2.19 | 
CN(C)CCC(Oc1ccc(OCCCN2CCCCC2)cc1)c1ccc(C(F)(F)F)cc1 (stereo not shown) [Example 42, Dimethyl-[3-[4-(3-piperidin-1-yl-propoxy)-phenoxy]-3-(4-trifluoromethyl-phenyl)-propyl]-amine] | 2 | 9 | 180 |  | 3.89 | 
CC(C)N1CCN(Cc2ccc(C(CCN(C)C)Oc3ccc(Cl)c(Cl)c3)cc2)CC1 (stereo not shown) [Example 47, {3-(3,4-Dichloro-phenoxy)-3-[4-(4-isopropyl-piperazin-1-ylmethyl)phenyl]-propyl}-dimethyl-amine] | 5 | 6 | 6 |  | 11.5 | 
CCC(CC)N1CCN(C(=O)c2ccc(C(CCN(C)C)Oc3ccc(C(F)(F)F)cc3)cc2)CC1 (stereo not shown) [Example 53, {4-[3-Dimethylamino-1-(4-trifluoromethyl-phenoxy)-propyl]-phenyl}-[4-(1-ethyl-propyl)-piperazin-1-yl]-methanone] | 8 | 102 |  |  | 2.45 | 
CCC(CC)N1CCN(Cc2ccc(C(CCN(C)C)Oc3ccc(C(F)(F)F)cc3)cc2)CC1 (stereo not shown) [Example 54, [3-{4-[4-(1-Ethyl-propyl)-piperazin-1-ylmethyl]-phenyl}-3-(4-trifluoromethyl-phenoxy)-propyl]-dimethyl-amine] | 5 | 37 |  |  | 18.6 | 
CC(C)N1CCN(Cc2ccc(C(CCN(C)C)Oc3ccc(C(F)(F)F)cc3)cc2)CC1 (stereo not shown) [Example 55, [3-[4-(4-Isopropyl-piperazin-1-ylmethyl)-phenyl]-3-(4-trifluoromethyl-phenoxy)-propyl]-dimethyl-amine] | 2 | 27 |  |  | 9.33 | 
CN(C)CCC(Oc1ccc(C#CCCN2CCCCC2)cc1)c1ccccc1 (stereo not shown) [Example 57, Dimethyl-{3-phenyl-3-[4-(4-piperidin-1-yl-but-1-ynyl)-phenoxy]-propyl}-amine] | 2 | 22 | 172 |  | 2.19 | 
CN(C)CCC(Oc1ccc(C#CCCN2CCCCC2)cc1)c1ccc(C(F)(F)F)cc1 (stereo not shown) [Example 60, Dimethyl-[3-[4-(4-piperidin-1-yl-but-1-ynyl)-phenoxy]-3-(4-trifluoromethyl-phenyl)-propyl]-amine] | 24 | 168 |  |  | 17.8 | 

Continued, in another order:

Ki (human H3 receptor [1]) [nM] | Ki (Rat SERT) [nM] | Ki (human SERT) [nM] | Kb (human H3 receptor [2]; [3]) [nM] | Kb (human H3 receptor [2]; read-out: pA2 (converted)) [nM] | SMILES | Kb (human H3 receptor [2]) [nM]
1 | 2 | 4 | 1.58 |  | CN(C)CCC(Oc1cccc(Br)c1)c1ccc(OCCCN2CCCCC2)cc1 (stereo not shown) [Example 15, {3-(3-Bromo-phenoxy)-3-[4-(3-piperidin-1-yl-propoxy)-phenyl]-propyl}-dimethyl-amine] | 
0.3 | 9 | 91 |  | 0.0631 | CN(C)CCC(Oc1cccnc1)c1ccc(OCCCN2CCCCC2)cc1 (stereo not shown) [Example 18, Dimethyl-[3-[4-(3-piperidin-1-yl-propoxy)-phenyl]-3-(pyridin-3-yloxy)-propyl]-amine] | 
1.2 | 5 | 29 |  | 0.661 | CN(C)CCC(Oc1ccccc1)c1ccc(C#CCCN2CCCCC2)cc1 (stereo not shown) [Example 21, Dimethyl-{3-phenoxy-3-[4-(4-piperidin-1-yl-but-1-ynyl)-phenyl]-propyl}-amine] | 
1 | 18 | 282 |  | 0.759 | CN(C)CCC(Oc1ccc(OCCCN2CCCCC2)cc1)c1ccccc1 (stereo not shown) [Example 41, Dimethyl-{3-phenyl-3-[4-(3-piperidin-1-yl-propoxy)-phenoxy]-propyl}-amine] | 
1 | 23 | 163 |  | 1.7 | CN(C)CCC(Oc1ccc(OCCCN2CCCCC2)cc1)c1ccc(Cl)cc1 (stereo not shown) [Example 43, {3-(4-Chloro-phenyl)-3-[4-(3-piperidin-1-yl-propoxy)-phenoxy]-propyl}-dimethyl-amine] | 
0.9 | 18 | 90 |  | 0.0977 | CC(C)N1CCC(Oc2ccc(OC(CCN(C)C)c3ccccc3)cc2)CC1 (stereo not shown) [Example 44, {3-[4-(1-Isopropyl-piperidin-4-yloxy)-phenoxy]-3-phenyl-propyl}-dimethyl-amine] | 
1 | 14 | 133 |  | 0.977 | CC(C)N1CCN(Cc2ccc(C(CCN(C)C)Oc3ccccc3)cc2)CC1 (stereo not shown) [Example 56, {3-[4-(4-Isopropyl-piperazin-1-ylmethyl)-phenyl]-3-phenoxy-propyl}-dimethyl-amine] | 
0.8 | 1 | 14 |  | 0.251 | CN(C)CCC(Cc1ccccc1)c1ccc(OCCCN2CCCCC2)cc1 (stereo not shown) [Example 65, Dimethyl-{4-phenyl-3-[4-(3-piperidin-1-yl-propoxy)-phenyl]-butyl}-amine] | 

Source: patent US20080139564A1, “SUBSTITUTED PHENYL PROPYL AMINES AS HISTAMINE H3 RECEPTOR AND SEROTONIN TRANSPORTER MODULATORS” (priority 2006, published 2008)
